This is an account of results in publication PMC8348236, “Improving the Utility of a Dynorphin Peptide Analogue Using Mannosylated Glycoliposomes” (International Journal of Molecular Sciences, 2021).

Some results are limits rather than exact numbers.

For data set [1] the following is noted: peptide without delivery system; cited from earlier work. From the text: Initially, the ability of DS1 and DS2 to entrap and protect dynantin from proteolytic degradation in human plasma ex vivo was compared (Figure 3A).
Another data set is described as follows: in vivo. As to conditions: female, BALB/c, mouse, inhaled or intranasal, 2 ug.
The target in data set [2] is T1, KOR (Mus musculus, UniProt P33534). Kind of data set: In vivo striatal dopamine modulation after intranasal administration. As to conditions: female BALB/c mice, 2.0 µg dynantin, 20 min after administration, LC/MS, average ± SD of 5 mice.
Description: The ability of the glycoliposome delivery systems to improve both the delivery and activity of dynantin in the brain was studied in an in vivo mouse model. Female BALB/c mice (5 per group) were intranasally administered dynantin (2.0 µg dose) alone or entrapped in either DS1 or DS2. Mice were sacrificed 20 min later and blood (sera), lungs and brains were collected. […] Striatum tissue was immediately removed and neurotransmitter levels analyzed by LC/MS.
Dynantin (2.0 µg total dose) was administered intranasally to female BALB/c mice (5 per group) either alone or entrapped with DS1 or DS2 (1:5 ratio of peptide: particles). The mice were euthanized 20 min after administration and the lung, brain, and blood (sera) were collected. Brains were immediately dissected on ice to obtain striatum tissue from which dopamine was extracted and its levels analyzed by LC/MS in the presence of 0.1% formic acid (A). […]
For each mouse, blood was placed in sera tubes, which were spun at 10,000 rpm for 5 min and sera collected. […] The amount of dopamine extracted was analyzed via LC/MS (5 µL injections) and quantified using the dopamine: dopamine-D2 peak area ratio and a standard curve that was generated using increasing concentrations of dopamine in the presence of a set concentration of the dopamine-D2 internal standard. […]
In data set [3] the target is T1, KOR. Description: In vitro dopamine modulation in fresh mouse striatum homogenates. As to conditions: mouse (C57BL/6) striatal homogenate, 90 min, 4 °C in the dark, LC/MS, average ± SD, n = 5, PBS control 0.54 ± 0.07.
Description: The gently homogenized tissue was treated with either PBS or dynantin at 1 and 10 µM concentrations for 90 min, after which dopamine levels were analyzed.
Striatal tissue was collected from the brains of sacrificed mice (n = 15), gently homogenized and then treated with either PBS (60 µL, n = 5) or dynantin in PBS at a concentration of either 1 µM (60 µL, n = 5) or 10 µM (60 µL, n = 5) for 90 min at 4 °C in the dark. Dopamine was extracted and its levels analyzed by LC/MS in the presence of 0.1% formic acid.
Analyses were performed using an Acquity Class H UPLC system with an Acquity QDa detector (Waters Limited, Mississauga, ON, Canada). Separations took place on an Acquity UPLC BEH C18 column, 1.7 µm, 100 mm × 2.1 mm(Waters Limited, Mississauga, ON, Canada), and were achieved using a binary gradient elution (Table 3) of water and acetonitrile (both with 0.1% formic acid, v/v) and a uniform flow rate of 0.4 mL/min. […]
Male C57BL/6 mice (n = 15) were sacrificed by CO2 asphyxiation and cervical dislocation. […] The amount of dopamine extracted was analyzed via LC/MS (5 µL injections) and quantified using the dopamine: dopamine-D2 peak area ratio and a standard curve that was generated using increasing concentrations of dopamine in the presence of a set concentration of the dopamine-D2 internal standard. […]
For data set [4] the following is noted: female BALB/c mice, intranasal, 2.0 µg, 20 min; average ± SD of 5 mice.

T1 sequence (P33534 whole entry): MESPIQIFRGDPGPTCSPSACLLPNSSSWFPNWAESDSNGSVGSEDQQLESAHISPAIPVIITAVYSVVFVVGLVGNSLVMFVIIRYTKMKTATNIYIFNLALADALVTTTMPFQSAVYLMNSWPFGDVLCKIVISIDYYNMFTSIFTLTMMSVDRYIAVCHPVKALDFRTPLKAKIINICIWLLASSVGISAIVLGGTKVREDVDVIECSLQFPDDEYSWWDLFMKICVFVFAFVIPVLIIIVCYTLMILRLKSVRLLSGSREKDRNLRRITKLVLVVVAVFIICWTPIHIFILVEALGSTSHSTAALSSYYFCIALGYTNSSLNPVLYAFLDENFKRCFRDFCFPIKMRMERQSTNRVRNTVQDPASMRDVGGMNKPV

For the compound `CC[C@H](C)[C@H](NC(=O)[C@H](CCCNC(=N)N)NC(=O)[C@H](CCCNC(=N)N)NC(=O)[C@H](CC(C)C)NC(=O)[C@H](Cc1ccccc1)NC(=O)CNC(=O)CNC(=O)[C@@H](C)Cc1c(C)cc(O)cc1C)C(=O)N[C@@H](CCCNC(=N)N)C(=O)N1CCC[C@H]1C(=O)N[C@@H](CCCCN)C(N)=O` [Dynantin], the “time to rapid and complete degradation in human plasma” value in data set [1] is not above 12 h. The compound also showed a tissue level at time at 20 min in “in vivo” (brain (remaining tissue after removal of striatum)) of 560 ± 200 ng/g. This compound also returned a tissue level at time at 20 min in the data set “in vivo” (lung) of 560 ± 120 ng/g. This compound also showed a level at 20 min in “in vivo” (serum) of 1300 ± 160 ng/mL. Besides, at KOR [2], the “striatal dopamine level in vivo” value is 0.58 ± 0.05 ng/mg. Further, at KOR [3] (1 µM in PBS), the “striatal dopamine level, 1 µM dynantin” value was 0.78 ± 0.10 ng/mg. In addition, the “striatal dopamine level, 10 µM dynantin” value at KOR [3] (10 µM in PBS) was found to be 0.98 ± 0.09 ng/mg. For the same compound, in data set [4], the “percentage of total dose recovered, Brain” value was 8.15 ± 3.06%; the “percentage of total dose recovered, Lung” value is listed as 4.93 ± 0.89%; the “percentage of total dose recovered, Sera” value amounted to 21.66 ± 3.99%.
